In publication PMC10353187, “Discovery of a new potent oxindole multi-kinase inhibitor among a series of designed 3-alkenyl-oxindoles with ancillary carbonic anhydrase inhibitory activity as antiproliferative agents” (BMC Chemistry, 2023):

What was measured:
[1] = system: HCC-2998; test: NCI-60 single-dose antiproliferative assay (SRB); assay type: cell-based; conditions: Homo sapiens; 10 μM single dose; HCC-2998, Colon cancer; read-out: Cell Growth inhibition Percent
Outline: (§1)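 Single 10 μM dose, 48 h at 37 °C in RPMI 1640 with 5% FBS, cells seeded 24 h before dosing. TCA fixation, sulforhodamine B staining, absorbance 515 nm; percent growth derived against time-zero and untreated control plates, triplicate wells.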

[2] = system: HL-60(TB); test: NCI-60 single-dose antiproliferative assay (SRB); assay type: cell-based; conditions: Homo sapiens, 10 μM single dose, Leukemia, read-out: Cell Growth inhibition Percent
[3] = system: NCI/ADR-RES; test: NCI-60 single-dose antiproliferative assay (SRB); assay type: cell-based; conditions: Homo sapiens, 10 μM single dose, Ovarian Cancer, read-out: Cell Growth inhibition Percent
Outline: as §1

[4] = system: UACC-257; test: NCI-60 single-dose antiproliferative assay (SRB); assay type: cell-based; conditions: Homo sapiens; 10 μM single dose; UACC-257, Melanoma; read-out: Cell Growth inhibition Percent
Outline: as §1

[5] = target: T1, c-Met (Homo sapiens, UniProt P08581); test: Z'-LYTE kinase inhibition assay (SelectScreen); assay type: biochemical
T1 construct: purchased Thermo Fischer Scientific (SelectScreen service)
Protocol: To test the potential kinase inhibitory activity of compound 15c, initial single dose testing was performed at 10 μM on a panel of kinases and their inhibition % were determined.
The FGFR, VEGFR-2 and RET tyrosine kinase assays were carried out at Thermo Fischer Scientific, USA (www.thermofischer.com/selectscreen). (For further details see Additional file 1; S3: In vitro biological activity).
The FGFR, VEGFR-2 and RET tyrosine kinase assays were performed at Thermo Fischer Scientific, USA (www.thermofischer.com/selectscreen). The assay was performed to evaluate the inhibitory activity of the designed compound applying the Z'-LYTE biochemical assay employing a fluorescence-based, coupled-enzyme format based on the differential sensitivity of phosphorylate and non-phosphorylate peptides to the proteolytic cleavage. The peptide substrate is characterized with two fluorophores, one at each end, that make up a FRET pair ^9.
The Z´-LYTE biochemical assay employs a fluorescence-based, coupled-enzyme format and is based on the differential sensitivity of phosphorylated and non-phosphorylated peptides to proteolytic cleavage. The peptide substrate is labeled with two fluorophores—one at each end—that make up a FRET pair. In the primary reaction, the kinase transfers the gamma-phosphate of ATP to a single tyrosine, serine or threonine residue in a synthetic FRET-peptide. In the secondary reaction, a site-specific protease recognizes and cleaves non-phosphorylated FRET-peptides. Phosphorylation of FRET-peptides suppresses cleavage by the Development Reagent. Cleavage disrupts FRET between the donor (i.e., coumarin) and acceptor (i.e., fluorescein) fluorophores on the FRET-peptide, whereas uncleaved, phosphorylated FRET-peptides maintain FRET. A ratiometric method, which calculates the ratio (the Emission Ratio) of donor emission to acceptor emission after excitation of the donor fluorophore at 400 nm, is used to quantitate reaction progress, as shown in the equation below. A significant benefit of this ratiometric method for quantitating reaction progress is the elimination of wellto-well variations in FRET-peptide concentration and signal intensities. […]. Both cleaved and uncleaved FRET-peptides contribute to the fluorescence signals and therefore to the Emission Ratio. The extent of phosphorylation of the FRET-peptide can be calculated from the Emission Ratio. The Emission Ratio will remain low if the FRET-peptide is phosphorylated (i.e., no kinase inhibition) and will be high if the FRET-peptide is non-phosphorylated (i.e., kinase inhibition).
Test Compounds the Test Compounds are screened in 1% DMSO (final) in the well. For 10 point titrations, 3-fold serial dilutions are conducted from the starting concentration of the customer’s choosing. Peptide/Kinase Mixtures All Peptide/Kinase Mixtures are diluted to a 2X working concentration in the appropriate Kinase Buffer (see section Kinase Specific Assay Conditions for a complete description). ATP Solution All ATP Solutions are diluted to a 4X working concentration in Kinase Buffer (50 mM HEPES pH 7.5, 0.01% BRIJ-35, 10 mM MgCl2, 1 mM EGTA). ATP Km apparent is previously determined using a Z´-LYTE assay.

T1 sequence (P08581 25-1390): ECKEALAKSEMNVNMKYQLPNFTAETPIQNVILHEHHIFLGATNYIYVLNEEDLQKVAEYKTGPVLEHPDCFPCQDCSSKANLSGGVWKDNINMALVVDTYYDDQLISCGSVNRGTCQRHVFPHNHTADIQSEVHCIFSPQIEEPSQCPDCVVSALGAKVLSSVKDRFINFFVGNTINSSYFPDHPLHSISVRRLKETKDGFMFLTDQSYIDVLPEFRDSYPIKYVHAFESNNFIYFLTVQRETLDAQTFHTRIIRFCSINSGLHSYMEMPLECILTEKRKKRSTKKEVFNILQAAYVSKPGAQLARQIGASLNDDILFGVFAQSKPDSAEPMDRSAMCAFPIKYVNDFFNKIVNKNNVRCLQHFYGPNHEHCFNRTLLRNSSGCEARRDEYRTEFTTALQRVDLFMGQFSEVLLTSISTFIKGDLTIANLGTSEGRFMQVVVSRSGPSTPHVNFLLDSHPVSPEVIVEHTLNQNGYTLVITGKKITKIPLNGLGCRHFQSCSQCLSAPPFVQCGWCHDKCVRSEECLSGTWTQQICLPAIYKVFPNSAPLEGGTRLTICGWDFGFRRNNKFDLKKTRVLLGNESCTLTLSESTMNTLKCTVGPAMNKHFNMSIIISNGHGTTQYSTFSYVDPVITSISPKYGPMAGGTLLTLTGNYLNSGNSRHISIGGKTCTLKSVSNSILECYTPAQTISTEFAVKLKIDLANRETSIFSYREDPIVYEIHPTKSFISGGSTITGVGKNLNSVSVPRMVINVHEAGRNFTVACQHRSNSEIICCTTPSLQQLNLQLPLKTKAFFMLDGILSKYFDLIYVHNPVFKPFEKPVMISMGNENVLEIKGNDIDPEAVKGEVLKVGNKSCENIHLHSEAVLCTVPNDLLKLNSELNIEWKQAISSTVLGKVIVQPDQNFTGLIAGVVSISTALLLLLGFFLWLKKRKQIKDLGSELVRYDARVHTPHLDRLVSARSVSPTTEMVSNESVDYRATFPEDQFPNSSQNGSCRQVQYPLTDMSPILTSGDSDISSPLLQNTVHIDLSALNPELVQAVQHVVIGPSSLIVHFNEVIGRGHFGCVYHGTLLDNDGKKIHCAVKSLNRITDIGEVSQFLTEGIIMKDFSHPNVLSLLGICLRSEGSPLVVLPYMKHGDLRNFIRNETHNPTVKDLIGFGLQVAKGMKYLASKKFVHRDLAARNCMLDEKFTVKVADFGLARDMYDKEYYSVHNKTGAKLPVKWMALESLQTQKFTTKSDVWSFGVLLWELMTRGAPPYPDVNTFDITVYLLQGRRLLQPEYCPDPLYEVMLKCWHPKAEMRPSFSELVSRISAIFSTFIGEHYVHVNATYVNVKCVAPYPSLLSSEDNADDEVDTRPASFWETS

## O=C(Nc1ccc(NC=C2C(=O)Nc3ccccc32)cc1)Nc1nccs1 [Compound 15c, 1-{4-[((2-Oxoindolin-3-ylidene)methyl)amino]phenyl}-3-(thiazol-2-yl)urea]
[1]
  inhibition at 10 µM: 26.1%
[2]
  inhibition at 10 µM: 58%
[3]
  inhibition at 10 µM: 59.2%
[4]
  inhibition at 10 µM: 28.4%
[5]
  inhibition at 10 µM: 62%
